Measurements as given in US9102665B2, “Cysteinyl leukotriene antagonists” (Sun Pharma Advanced Research Company Ltd., priority 2011, dated 2015).

Target: T1, Leukotriene, Cysteinyl CysLT1 (Cavia porcellus, UniProt Q2NNR5)
T1 construct: from tissue; host or cells: guinea pig lung membrane
T1 sequence (Q2NNR5 1-340): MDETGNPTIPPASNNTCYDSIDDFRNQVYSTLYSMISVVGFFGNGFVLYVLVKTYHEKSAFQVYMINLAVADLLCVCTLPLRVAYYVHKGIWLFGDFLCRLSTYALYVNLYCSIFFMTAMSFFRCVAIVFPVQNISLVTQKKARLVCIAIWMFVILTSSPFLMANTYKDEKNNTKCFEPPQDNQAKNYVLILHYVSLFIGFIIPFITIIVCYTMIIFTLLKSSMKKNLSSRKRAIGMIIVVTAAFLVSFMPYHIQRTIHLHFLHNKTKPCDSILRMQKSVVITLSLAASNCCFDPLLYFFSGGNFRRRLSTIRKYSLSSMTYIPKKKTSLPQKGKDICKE
Experiment: receptor radio-ligand-binding assay (Tritiated LTD4 as the ligand), Guinea pig lung membrane
Conditions: 0.2 nM 3H LTD4, Guinea pig lung membrane; for inhibition at 0.001 µM / inhibition at 0.003 µM / inhibition at 0.01 µM: 0.5 h; for inhibition at 0.001 µM: read-out: % Inhbition (in nM) 1; for inhibition at 0.003 µM: read-out: % Inhbition (in nM) 3; for inhibition at 0.01 µM: read-out: % Inhbition (in nM) 10
Method: The primary in-vitro biological screening for the compounds carried-out involving receptor radio-ligand-binding assay (Tritiated LTD4 as the ligand) by known methods described in literature [a). Mong et al. European Journal of Pharmacology (102); 1984 1-11b). Jones et al; Journal of Physiology & Pharmacology (73); 1994, 191-201 c). MDS Pharma Services: 250460 Leukotriene, Cysteinyl CysLT1]. Accordingly, Guinea pig lung membrane (100 ug) is incubated with 0.2 nM 3H LTD4 in presence of Reference Standard/Test item/Vehicle Control. Non Specific Binding is determined by incubating the membrane with 0.2 nM 3H LTD4 in presence of 1 uM of unlabeled LTD4. The samples are incubated at 26° C. for 30 minutes and are vacuum filtered on a membrane to separate the bound and free radioligand. The membrane is counted in a liquid scintillation counter to calculate the bound radioactivity. Specific Binding in Vehicle treated and Reference Standard/Test item treated set is compared to evaluate the % Inhibition values. Some of the compounds have shown >50% inhibition in the presence of ≦3 nano-molar concentration of the compounds of present invention as shown in the following table.

inhibition at 0.001 µM (1 nM test compound) [%] | inhibition at 0.003 µM (3 nM test compound) [%] | inhibition at 0.01 µM (10 nM test compound) [%] | Structure (SMILES) | % Inhbition (in nM) 1 (1 nM test compound) [%] | % Inhbition (in nM) 3 (3 nM test compound) [%] | % Inhbition (in nM) 10 (10 nM test compound) [%]
50 | 69 | 73 | C#CCOC(COc1ccccc1C(=O)O)c1cccc(/C=C/c2ccc3ccc(Cl)cc3n2)c1 (stereo not drawn) [Ia.127, 2-(2-{3-[(E)-2-(7-Chloro-quinolin-2-yl)-vinyl]-phenyl}-2-prop-2-ynyloxy-ethoxy)-benzoic acid] | – | – | –
32 | 56 | 74 | O=C(O)c1ccccc1OCC(OCCc1cccs1)c1cccc(/C=C/c2ccc3ccc(Cl)cc3n2)c1 (stereo not drawn) [Ia.143, 2-[2-{3-[(E)-2-(7-Chloro-quinolin-2-yl)-vinyl]-phenyl}-2-(2-thiophen-2-yl-ethoxy)-ethoxy]-benzoic acid] | – | – | –
62 | 72 | 80 | CCOC(COc1ccc(OC)cc1C(=O)NS(C)(=O)=O)c1cccc(/C=C/c2ccc3ccc(Cl)cc3n2)c1 (stereo not drawn) [Ia.157, N-[2-(2-{3-[(E)-2-(7-Chloro-quinolin-2-yl)-vinyl]-phenyl}-2-ethoxy-ethoxy)-5-methoxybenzoyl]-methanesulfonamide] | – | – | –
57 | 60 | 84 | C#CCO[C@H](COc1ccc(OC)cc1C(=O)O)c1cccc(/C=C/c2ccc3ccc(Cl)cc3n2)c1 [Ia.185, 2-((S)-2-{3-[(E)-2-(7-Chloro-quinolin-2-yl)-vinyl]-phenyl}-2-prop-2-ynyloxy-ethoxy)-5-methoxy-benzoic acid] | – | – | –
38 | 54 | 74 | CCOC(COc1ccc(OC)cc1C(=O)O)c1cccc(/C=C/c2nc3ccccc3s2)c1 (stereo not drawn) [Ia.192, 2-{2-[3-((E)-2-Benzothiazol-2-yl-vinyl)-phenyl]-2-ethoxy-ethoxy}-5-methoxy-benzoic acid] | – | – | –
76 | 88 | 97 | CCOC(COc1ccc(OC)cc1C(=O)O)c1cccc(C#Cc2ccc3ccc(Cl)cc3n2)c1 (stereo not drawn) [Ia.199, 2-{2-[3-(7-Chloro-quinolin-2-ylethynyl)-phenyl]-2-ethoxy-ethoxy}-5-methoxy-benzoic acid] | – | – | –
46 | 49 | 70 | CCOC(CSc1ncccc1C(=O)O)c1cccc(/C=C/c2ccc3ccc(Cl)cc3n2)c1 (stereo not drawn) [Ia.205, 2-(2-{3-[(E)-2-(7-Chloro-quinolin-2-yl)-vinyl]-phenyl}-2-ethoxy-ethylsulfanyl)-nicotinic acid] | – | – | –
31 | 41 | 49 | O=C(O)c1ccccc1SCC1(c2cccc(/C=C/c3ccc4ccc(Cl)cc4n3)c2)OCCO1 [Ib.42] | – | – | –
72 | 86 | 89 | COc1ccc(CCC2(c3cccc(/C=C/c4ccc5ccc(Cl)cc5n4)c3)OCCO2)c(C(=O)O)c1 [Ib.67] | – | – | –
67 | 78 | 86 | COc1ccc(C=CC2(c3cccc(/C=C/c4ccc5ccc(Cl)cc5n4)c3)OCCO2)c(C(=O)O)c1 [Ib.79] | – | – | –
6 | 38 | 53 | CCOc1ccc(CCC2(c3cccc(/C=C/c4ccc5ccc(Cl)cc5n4)c3)OCCO2)c(C(=O)O)c1 [Ib.86] | – | – | –
14 | 20 | 60 | C#CCOc1ccc(CCC2(c3cccc(/C=C/c4ccc5ccc(Cl)cc5n4)c3)OCCO2)c(C(=O)O)c1 [Ib.93] | – | – | –
65 | 84 | 91 | O=C(O)c1cc(Cl)ccc1CCC1(c2cccc(/C=C/c3ccc4ccc(Cl)cc4n3)c2)OCCO1 [Ib.111] | – | – | –
48 | 68 | 85 | COc1cc(C(=O)O)c(CCC2(c3cccc(/C=C/c4ccc5ccc(Cl)cc5n4)c3)OCCO2)c(OC)c1OC [Ib.113] | – | – | –

Further lines, the compound ahead of its results:

Structure (SMILES) | inhibition at 0.001 µM (1 nM test compound) [%] | inhibition at 0.003 µM (3 nM test compound) [%] | inhibition at 0.01 µM (10 nM test compound) [%] | % Inhbition (in nM) 1 (1 nM test compound) [%] | % Inhbition (in nM) 3 (3 nM test compound) [%] | % Inhbition (in nM) 10 (10 nM test compound) [%]
[2H]C([2H])([2H])Oc1ccc(OCC(OCC2CC2)c2cccc(/C=C/c3ccc4ccc(Cl)cc4n3)c2)c(C(=O)O)c1 (stereo not drawn) [Ia.172, 2-(2-{3-[(E)-2-(7-Chloro-quinolin-2-yl)-vinyl]-phenyl}-2-cyclopropylmethoxy-ethoxy)-5-triduetereo methoxy-benzoic acid] | – | – | – | 50 | 77 | 88
O=C(O)c1ccccc1CCC1(c2cccc(/C=C/c3ccc4ccc(Cl)cc4n3)c2)OCCO1 [Ib.4, 2-[2-(2-{3-[(E)-2-(7-Chloro-quinolin-2yl)-vinyl]phenyl}-[1,3]dioxolan-2yl)-ethyl]-benzoic acid] | 33 | 41 | 62 | – | – | –
Cc1oc(=O)oc1COC(=O)c1ccccc1CCC1(c2cccc(/C=C/c3ccc4ccc(Cl)cc4n3)c2)OCCO1 [Ib.11] | 32 | 60 | 74 | – | – | –
CC1(C)COC(CCc2ccccc2C(=O)O)(c2cccc(/C=C/c3ccc4ccc(Cl)cc4n3)c2)OC1 [Ib.26] | 34 | 53 | 56 | – | – | –
O=C(c1ccccc1CCC1(c2cccc(/C=C/c3ccc4ccc(Cl)cc4n3)c2)OCCO1)N1CCCC1 [Ib.36, {2-[2-(2-{3-[(E)-2-(7-Chloro-quinolin-2-yl)-vinyl]-phenyl}-[1,3]-dioxolan-2-yl)-ethyl]-phenyl}-pyrrolidin-1-yl-methanone] | 49 | 91 | 99 | – | – | –
O=C(O)c1ccccc1CCC1(c2cccc(/C=C/c3ccc4ccc(Cl)cc4n3)c2)OCCS1 (stereo not drawn) [Ib.59] | 64 | 74 | 97 | – | – | –
COc1cc(C(=O)O)c(CCC2(c3cccc(/C=C/c4ccc5ccc(Cl)cc5n4)c3)OCCCO2)cc1[N+](=O)[O-] [Ib.123] | 58 | 81 | 86 | – | – | –
O=C(O)c1cc2c(cc1CCC1(c3cccc(/C=C/c4ccc5ccc(Cl)cc5n4)c3)OCCCO1)OCO2 [Ib.133] | 41 | 57 | 80 | – | – | –
COc1ccc(CCC2(c3cccc(/C=C/c4ccc5ccc(Cl)cc5n4)c3)OCCO2)c(-c2nnn[nH]2)c1 [Ib.135] | 56 | 77 | 86 | – | – | –
O=C(O)c1cc2c(cc1CCC1(c3cccc(/C=C/c4ccc5ccc(Cl)cc5n4)c3)OCCO1)OCCO2 [Ib.139] | 28 | 52 | 82 | – | – | –
O=C(O)c1ccc(C(=O)O)c(CCC2(c3cccc(/C=C/c4ccc5ccc(Cl)cc5n4)c3)OCCO2)c1 [Ib.142] | 15 | 49 | 80 | – | – | –
CC(ON=C(CCc1ccccc1C(C)(C)O)c1cccc(/C=C/c2ccc3ccc(Cl)cc3n2)c1)C(=O)O (stereo not drawn) [Ib.148] | 20 | 16 | 31 | – | – | –
